Experiments:
Test in all cases: relative viability (nuclei count vs DMSO), 5 days (fraction); higher = more cells survive
Daporinad + Decitabine = compound: O=C(/C=C/c1cccnc1)NCCCCC1CCN(C(=O)c2ccccc2)CC1 [Daporinad] + Nc1ncn([C@H]2C[C@H](O)[C@@H](CO)O2)c(=O)n1 [Decitabine] (partner 2 µM)
Summary of the method: (§1)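 Nuclei were stained with Hoechst during a one-step fixation (final 0.05% Triton X-100, 1% formaldehyde, 1 ug/ml Hoechst) carried out 5 days after dosing, then counted on 4× images. The cells, lung cancer lines in 1536-well plates, had been dosed by pin tool the day after seeding with one drug alone or a fixed anchor-drug dose plus five library-drug doses (not always all listed) in √10 steps. Relative viability is the nuclei count in treated wells divided by that in vehicle wells, and each value is the median of duplicate plates.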

R406 + Luminespib = compound: COc1cc(Nc2ncc(F)c(Nc3ccc4c(n3)NC(=O)C(C)(C)O4)n2)cc(OC)c1OC [R406] + CCNC(=O)c1noc(-c2cc(C(C)C)c(O)cc2O)c1-c1ccc(CN2CCOCC2)cc1 [Luminespib] (partner 0.01 µM)
Summary of the method: as §1

Daporinad + Linsitinib = compound: O=C(/C=C/c1cccnc1)NCCCCC1CCN(C(=O)c2ccccc2)CC1 [Daporinad] + C[C@]1(O)C[C@@H](c2nc(-c3ccc4ccc(-c5ccccc5)nc4c3)c3c(N)nccn32)C1 [Linsitinib] (partner 1 µM)
Summary of the method: as §1

Daporinad + Trametinib = compound: O=C(/C=C/c1cccnc1)NCCCCC1CCN(C(=O)c2ccccc2)CC1 [Daporinad] + CC(=O)Nc1cccc(-n2c(=O)n(C3CC3)c(=O)c3c(Nc4ccc(I)cc4F)n(C)c(=O)c(C)c32)c1 [Trametinib] (partner 0.02 µM)
Summary of the method: as §1

| Cell Line | relative viability (Daporinad + Decitabine; first compound 0.0005 µM) | relative viability (Daporinad + Decitabine; first compound 0.001581 µM) | relative viability (Daporinad + Decitabine; first compound 0.005 µM) | relative viability (Daporinad + Decitabine; first compound 0.01581 µM) | relative viability (R406 + Luminespib; first compound 0.08 µM) | relative viability (R406 + Luminespib; first compound 0.253 µM) | relative viability (R406 + Luminespib; first compound 0.8 µM) | relative viability (R406 + Luminespib; first compound 2.53 µM) | relative viability (R406 + Luminespib; first compound 8 µM) | relative viability (Daporinad + Linsitinib; first compound 0.0005 µM) | relative viability (Daporinad + Linsitinib; first compound 0.001581 µM) | relative viability (Daporinad + Linsitinib; first compound 0.005 µM) | relative viability (Daporinad + Linsitinib; first compound 0.01581 µM) | relative viability (Daporinad + Trametinib; first compound 0.0005 µM) | relative viability (Daporinad + Trametinib; first compound 0.001581 µM) | relative viability (Daporinad + Trametinib; first compound 0.005 µM) | relative viability (Daporinad + Trametinib; first compound 0.01581 µM) |
| --- | --- | --- | --- | --- | --- | --- | --- | --- | --- | --- | --- | --- | --- | --- | --- | --- | --- |
| NCI-H1944 | 0.44 | 0.406 | 0.497 | 0.411 | 0.686 | 0.805 | 0.759 | 0.369 | 0.517 | 1.17 | 1.26 | 1.34 | 1.25 | 0.449 | 0.464 | 0.469 | 0.399 |
| NCI-H1975 | 0.444 | 0.338 | 0.382 | 0.373 | 0.25 | 0.227 | 0.187 | 0.143 | 0.116 | 1.14 | 0.99 | 0.92 | 0.812 | 0.329 | 0.286 | 0.341 | 0.454 |
| NCI-H1993 | 0.576 | 0.629 | 0.602 | 0.639 | 0.78 | 1.11 | 0.988 | 0.359 | 0.577 | 0.703 | 0.715 | 0.782 | 0.77 | 0.485 | 0.514 | 0.633 | 0.555 |
| NCI-H2009 | 0.356 | 0.395 | 0.381 | 0.372 | 1.05 | 1.09 | 1.04 | 0.884 | 0.993 | 1.25 | 1.21 | 1.2 | 0.735 | 0.261 | 0.35 | 0.315 | 0.31 |
| NCI-H2023 | 0.208 | 0.247 | 0.247 | 0.232 | 0.807 | 0.608 | 0.801 | 0.41 | 0.144 | 0.764 | 0.723 | 0.768 | 0.686 | 0.605 | 0.523 | 0.539 | 0.621 |
| NCI-H2085 | 0.486 |  | 0.59 | 0.573 | 0.437 | 0.353 | 0.525 | 0.319 | 0.279 | 0.907 | 0.959 | 0.915 | 0.918 | 0.515 |  | 0.653 | 0.538 |
| NCI-H2087 | 0.264 | 0.317 | 0.329 | 0.277 | 0.209 | 0.123 | 0.162 |  | 0.124 | 0.991 | 0.908 | 0.956 | 0.98 | 0.18 | 0.213 | 0.263 | 0.22 |
| NCI-H2126 | 0.618 | 0.524 | 0.638 | 0.584 | 0.826 | 0.868 | 0.796 | 0.597 | 0.437 | 0.686 | 0.75 | 0.719 | 0.683 | 0.562 | 0.548 | 0.604 | 0.587 |
| NCI-H2347 | 0.457 | 0.721 | 0.619 | 0.578 | 0.521 | 0.16 | 0.553 | 0.307 | 0.272 | 1.1 | 1.03 | 1 | 0.981 | 0.301 | 0.288 | 0.281 | 0.329 |
| NCI-H2405 | 0.796 | 0.807 | 0.751 | 0.379 | 0.651 | 0.954 | 0.766 | 0.26 | 0.241 | 0.987 | 1.06 | 1.04 | 0.611 | 0.69 | 0.664 | 0.647 | 0.509 |
| NCI-H3122 | 0.308 | 0.417 | 0.392 | 0.321 | 0.114 | 0.116 | 0.132 |  | 0.0937 | 1.01 | 1.01 | 1.02 | 1 | 0.165 | 0.227 | 0.213 | 0.217 |
| PC-3 [JPC-3] | 0.84 | 0.781 | 0.91 | 0.907 | 0.743 | 0.708 | 0.903 | 0.485 | 0.509 | 0.898 | 0.99 | 0.963 | 0.955 | 0.667 | 0.714 | 0.758 | 0.842 |
| PC-14 | 0.189 | 0.199 | 0.23 | 0.144 | 0.153 | 0.171 | 0.139 | 0.123 | 0.126 | 1.03 | 1.04 | 0.884 | 0.905 | 0.657 | 0.654 | 0.722 | 0.572 |
| RERF-LC-KJ | 0.565 | 0.697 | 0.758 | 0.827 | 1.25 | 1.3 | 1.19 | 1.25 | 0.725 | 0.883 | 0.893 | 1.01 | 0.949 | 0.788 | 1.01 | 0.955 | 0.921 |
| SK-LU-1 | 0.656 | 0.683 | 0.671 | 0.692 | 0.192 | 0.203 | 0.191 | 0.151 | 0.101 | 1.26 | 1.13 | 1.05 | 1.09 | 0.48 | 0.522 | 0.55 | 0.615 |
| SK-MES-1 | 0.377 | 0.374 | 0.383 | 0.375 | 0.863 | 0.858 | 0.957 | 0.232 | 0.137 | 1.1 | 1.13 | 1.17 | 0.905 | 0.561 | 0.524 | 0.613 | 0.743 |
| SW 1573 | 0.472 | 0.499 | 0.406 | 0.197 | 0.396 | 0.44 | 0.5 | 0.161 | 0.107 | 0.889 | 0.848 | 0.747 | 0.551 | 0.499 | 0.45 | 0.447 | 0.28 |
